Reference: patent US20240197694A1, “MODIFIED PROTEINS AND PROTEIN BINDERS” (Cullgen (Shanghai), Inc., priority 2021, published 2024)

Target: T1, DCAF1 (1058-1396) (Homo sapiens, UniProt Q9Y4B6)
T1 construct: a fragment of a DCAF1 protein that includes amino acid residues A1058 to E1396; His6 (N, cleaved yes); made in house; host or cells: Sf9 insect cells (Bac-to-Bac baculovirus, pFastBacHT vector)
Assay: Surface plasmon resonance (SPR) binding assay, compound binding to DCAF1
Settings: immobilized DCAF1 (1058-1396), steady state affinity model, 25° C.
Summary of the method: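 Amine-coupled DCAF1 (1058-1396), Sf9-expressed, tag removed, at 9,000-12,000 RU; HBS-EP pH 7.4 with 2% DMSO, 25° C. Compounds at 100-3.125 μM (6-point, two-fold) injected multi-cycle, 60 s association/dissociation, 30 μL/min; double-referenced, solvent-corrected, Kd from steady-state affinity fit.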

T1 sequence (Q9Y4B6 1058-1396): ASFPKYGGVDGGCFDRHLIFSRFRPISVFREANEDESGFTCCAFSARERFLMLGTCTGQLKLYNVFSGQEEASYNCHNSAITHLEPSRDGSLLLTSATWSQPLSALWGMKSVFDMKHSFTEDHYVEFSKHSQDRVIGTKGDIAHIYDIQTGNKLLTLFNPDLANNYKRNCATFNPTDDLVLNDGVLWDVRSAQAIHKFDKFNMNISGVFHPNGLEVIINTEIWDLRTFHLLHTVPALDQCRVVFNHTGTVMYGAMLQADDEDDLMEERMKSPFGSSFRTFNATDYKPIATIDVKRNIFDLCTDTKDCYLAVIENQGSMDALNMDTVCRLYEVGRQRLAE

Question: For `Cc1cccc2c1[C@H]1CN(C)CC[C@H]1N2C` (racemic) [CPD-042, cis-2,5,9-trimethyl-2,3,4,4a,5,9b-hexahydro-1H-pyrido[4,3-b]indole], which Kd is on record?
Answer: > 100 µM

Question: For `NCCCCCCn1c2c(c3cc(F)ccc31)CN(CCc1cnn[nH]1)CC2` [CPD-014, 6-(2-(2-(1H-1,2,3-triazol-5-yl)ethyl)-8-fluoro-1,2,3,4-tetrahydro-5H-pyrido[4,3-b]indol-5-yl)hexan-1-amine], which Kd is on record?
Answer: 40 to 70 µM

Question: Which Kd does the source give for `Cc1ccc2[nH]c3c(c2c1)CN(C)CC3` [CPD-019, 2,8-dimethyl-2,3,4,5-tetrahydro-1H-pyrido[4,3-b]indole] here?
Answer: 40 to 70 µM

Question: How did the Kd turn out when `Cc1ccc2c(c1)C1CN(C)CCC1N2C(=O)c1cc2c(s1)CCCC2` (stereo not shown) [CPD-073, (2,8-dimethyl-1,2,3,4,4a,9b-hexahydro-5H-pyrido[4,3-b]indol-5-yl)(4,5,6,7-tetrahydrobenzo[b]thiophen-2-yl)methanone] was run?
Answer: > 100 µM
